Laboratory results from patent US6235736A, “3-anilino-2-cycloalkenone derivatives” (Nikken Chemicals Co., Ltd., priority 1997, dated 2001).

Legend:
[1] = test system: DNFB contact-type dermatitis in mouse; experiment: Allergic contact dermatitis assay (DNFB); format: in vivo, mouse (ICR male); conditions: applied 1 hour before and 5 hours after inducing ear edema; 24 hours
Method: 8 to 9 week old ICR type male mice were divided into groups of 8 to 9 each for use. The shaved skin of the ventral surface of each of the mice was applied with a 0.5% DNFB (2,4-dinitrofluorobenzene)acetone-olive oil solution (v/v=4/1) in an amount of 25 μl/day over 2 days to sensitize it. Four days after the second day of sensitization, a 0.2% DNFB acetone-olive oil solution was applied to the ear in an amount of 25 μl to induce contact-type dermatitis. After 24 hours, the thickness of the ear was measured using a dial thickness gauge and the difference with the value before inducing the edema was found. The test compound was dissolved in 25 μl of tetrahydrofuran-methanol (mixture ratio 1:1) and applied two time, that is, 1 hour before inducing the ear edema and 5 hours after it.
In Table 6, the effect of the compound was expressed by the ED50.

[2] = test system: Type IV PDE; experiment: PDE IV inhibitory activity (isozyme partially purified from rat neutrophils, 3H-cAMP substrate); format: biochemical; conditions: rat neutrophil PDE IV, 30° C., 30 minutes, read-out: PDE IV inhibiting action IC50
Method: Type I, III, IV, and V PDE isozymes were prepared to study the PDE inhibitory activities of and selectivities with the compound of the invention [Trends Pharmacol Sci., 12, 19-27 (1991)]. Type I PDE was purchased from Sigma Corp. Type III, IV, and V PDE isozymes were partially purified from platelets (Type III and V) or neutrophils (Type IV) collected from rats. Each enzyme source was homogenized in a buffer (pH 6.5) containing 20 mM bisTris, 2 mM EDTA (i.e., ethlenediamine tetraacetate), 2-mercaptoethanol, 0.001 mM pepstatin and 0.01 mM leupeptin and was centrifuged at 30000×G for 30 minutes to obtain a supernatant, which was applied to an ion exchange column (Q-sepharose first flow, Pharmacia Corp.) and was eluted with 0 to 1M sodium acetate. Partially purified isozymes were identified by observing the inhibitory effects of conventional inhibitors.
Each PDE isozyme and the test compound dissolved in DMSO (i.e., dimethylsulfoxide) were added to 50 mM Tris--HCI buffer containing 5 mM magnesium chloride. ^3 H-cAMP (for type III and IV PDE) or ^3 H-cGMP (for type I and V PDE) were added as substrates and were reacted at 30° C. for 30 minutes. The reaction was terminated by placing the test tube in boiling water of 100° C. for 5 minutes. The nucleotides formed by PDE were broken down to ^3 H-adenosine or ^3 H-guanosine by 5'-nucleotidase. The substrate and reaction product were separated through an ion-exchange column (i.e., QAE sephadex, Pharmacia Corp.)
The eluted ^3 -H-nucleoside was measured for its radioactivity by a liquid scintillation counter. The inhibitory activities of the compound of the present invention are shown by the IC50 value (M). Further, the inhibitory activities of the test samples against type I, III, and V PDE are 1/10 or less than that against Type IV PDE.

[3] = test system: antigen-induced bronchoconstriction in guinea-pig; experiment: Inhibitory effect on antigen-induced bronchospasm (anti-asthmatic action); format: in vivo, guinea-pig (Hartley male); conditions: Cavia porcellus; intravenous, 10 minutes before 0.2 mg/kg OA challenge; read-out: Action suppressing antigen induced bronchoconstriction ED50
Method: Hartley male guinea-pig was sensitized by intramuscular administration of 35 mg Ovalbumin (OA) at first day and fourth day. After 25 to 29 days of first sensitization, trachial canula was introduced in the guinea pig anesthetized with pentobarbital and artificial ventilation was performed. The overflow of the ventilation was measured by the Konzett Roessler method while 0.2 mg/kg OA were administered intravenously. The test compound was dissolved in polyethylene glycol 400 and intravenously administered 10 minutes before OA challenge.

[4] = test system: TPA induced ear edema in mouse; experiment: TPA induced mouse ear edema assay; format: in vivo, mouse (male ICR); conditions: 0.1 mg applied to right ear immediately after TPA; 6 hour
Method: Male ICR mice, 5 week old, were divided into groups of seven to eight. 2 μg of TPA (phorbor 12-ministate; Sigma Co.) in 20 μl acetone was applied to the inner and outer surface of right ear of each mouse to cause a reaction. 0.1 mg of compound was dissolved in 20 μl of a tetrahydrofuran-methanol mixture (mixture ratio 1:1) and the solution (20 μl) applied to the right ear immediately after TPA treatment. After 6 hour, the animals were sacrificed and right ear was punched out (.phi. […]) and weighed. The effect of comppund.was calculated as % inhibition as follows: [formula]

[5] = test system: rat neutrophils; experiment: Inhibition of superoxide anion release from rat neutrophils (chemiluminescence); format: cell-based; conditions: Neutrophil, stimulated with 0.3 micro M A23187, read-out: Action suppressing release of superoxide anions from rat neutrophils IC50
Method: The release of super oxide anions was measured so as to study the inhibitory effects of the compound of the present invention on inflammatory leukocytes, that is, neutrophils.
Blood sample was collected from Wister rats anestetized with ether. It was superposed on a blood cell separation solution (Polymorphoprep 1.113, Naicomed Farm) and the neutrophils were separated by centrifugation. The neutrophils were resuspended in a Hank's balanced salt solution at a concentration of 0.5×10^4 cells/ml. 0.1 mM of lusigenin and the test substance dissolved in DMSO were added to 2 ml of the cell suspension. The chemiluminescence generated by stimulation of 0.3 maicro M calcium ionophore A23187 was measured by a chemiluminescence reader so as to evaluate the release of super oxide anions.

[6] = test system: type IV PDE; conditions: background art (Kokai No. 50-157360); cited from earlier work

Structure (SMILES)	IC50 [2] [nM]	IC50 [5] [nM]	ED50 (allergic contact dermatitis, ear edema) [1] [μg/site]	ED50 [3] [mg/kg]	% Inhibition of ear edema [4] [%]	specific inhibitory activity against type IV PDE (in words) [6]
COc1ccc(NC2=CC(=O)CC2)cc1O[C@@H]1C[C@H]2CC[C@@H]1C2 (racemic) [Compound No. 8, 3-[3-[(1RS,2RS,4SR)-bicyclo[2.2. 1]hept-2-yloxy]-4-methoxyanilino]-2-cyclopenten-1-one]	1300	140	–	3	73.1	–
COc1ccc(NC2=CC(=O)NCC2)cc1OC1CCCC1 [Compound No. 21, 4-(3-cyclopentyloxy-4-methoxyanilino)-1,2,5,6-tetrahydropyridin-2-one]	1100	410	–	1	–	–
COc1ccc(C2CNC(=O)C2)cc1OC1CCCC1 (centres unmarked) [Rolipram]	–	–	–	–	–	specific inhibitory activity against type IV PDE
COc1ccc(NC2=CC(=O)NCC2)cc1O[C@H]1C[C@@H]2CC[C@H]1C2 (relative stereo) [Compound No. 23]	2400	190	–	–	73.0	–
COc1ccc(NC2=CC(=O)N(Cc3ccccc3)CC2)cc1OC1CCCC1 [Compound No. 22, 1-benzyl-4-(3-cyclopentyloxy-4-methoxyanilino)-1,2,5,6-tetrahydropyridin-2-one]	24000	3300	32	–	76.8	–
COc1ccc(NC2=C(Cc3ccccc3)C(=O)CC2)cc1OC1CCCC1 [Compound No. 33, 2-benzyl-3-(3-cyclopentyloxy-4-methoxyanilino)-2-cyclopenten-1-one]	400	–	–	–	81.7	–
COc1ccc(NC2=CC(=O)CC2)cc1OC1CCCC1 [Compound No. 1, 3-(3-cyclopentyloxy-4-methoxyanilino)-2-cyclopenten-1-one]	1600	120	–	1.4	68.2	–
COc1ccc(N(C)C2=CC(=O)CC2)cc1OC1CCCC1 [Compound No. 26, 3-(3-cyclopentyloxy-4-methoxy-N-methylanilino)-2-cyclopenten-1-one]	800	–	–	–	82.0	–
COc1ccc(NC2=C(C)C(=O)CC2)cc1OCCC1Cc2ccccc2C1 [Compound No. 35, 3-[3-[2-(2-indanyl)ethoxy]-4-methoxyanilino]-2-methyl-2-cyclopenten-1-one]	290	–	–	–	52.5	–
CCCCCN(C1=CC(=O)CC1)c1ccc(OC)c(OC2CCCC2)c1 [Compound No. 64, 3-(3-cyclopentyloxy-4-methoxy-N-pentylanilino)-2-cyclopenten-1-one]	4400	–	–	–	52.0	–
COc1ccc(NC2=C(C)C(=O)CC2)cc1OC1CCCCC1 [Compound No. 14, 3-(3-cyclohexyloxy-4-methoxyanilino)-2-methyl-2-cyclopenten-1-one]	2400	–	16	–	73.4	–
COc1ccc(NC2=CC(=O)CCC2)cc1OC1CCCC1 [Compound No. 2, 3-(3-cyclopentyloxy-4-methoxyanilino)-2-cyclohexen-1-one]	3700	–	–	–	65.0	–
COc1ccc(NC2=C(C)C(=O)CCC2)cc1OC1CCCC1 [Compound No. 75, 3-(3-cyclopentyloxy-4-methoxyanilino)-2-methyl-2-cyclohexen-1-one]	470	–	–	–	64.8	–
COc1ccc(NC2=C(C)C(=O)CC2)cc1OCC1(c2ccccc2)CC1 [Compound No. 50, 3-[4-methoxy-3-[(1-phenylcyclopropyl)methoxy]anilino]-2-methyl-2-cyclopenten-1-one]	620	–	–	–	62.6	–
COc1ccc(NC2=C(C)C(=O)CC2)cc1OCCc1ccccc1 [Compound No. 12, 3-(4-methoxy-3-phenethyloxyanilino)-2-methyl-2-cyclopenten-1-one]	710	–	–	–	52.5	–
COc1ccc(NC2=C(Br)C(=O)CC2)cc1OC1CCCC1 [Compound No. 7, 2-bromo-3-(3-cyclopentyloxy-4-methoxyanilino)-2-cyclopenten-1-one]	280	–	–	–	55.8	–

Now from value to molecule, other results behind:

IC50 [2] [nM]	IC50 [5] [nM]	Structure (SMILES)	ED50 (allergic contact dermatitis, ear edema) [1] [μg/site]	ED50 [3] [mg/kg]	% Inhibition of ear edema [4] [%]	specific inhibitory activity against type IV PDE (in words) [6]
690	–	COc1ccc(NC2=CC(=O)CC2)cc1OC1Cc2ccccc2C1 [Compound No. 9, 3-[3-(2-indanyloxy)-4-methoxyanilino]-2-cyclopenten-1-one]	94	5.5	72.3	–
140	–	COc1ccc(NC2=C(C)C(=O)CC2)cc1OC1Cc2ccccc2C1 [Compound No. 10, 3-[3-(2-indanyloxy)-4-methoxyanilino]-2-methyl-2-cyclopenten-1-one]	–	0.86	–	–
50	–	CCC1=C(Nc2ccc(OC)c(OC3Cc4ccccc4C3)c2)CCC1=O [Compound No. 32, 2-ethyl-3-[3-(2-indanyloxy)-4-methoxyanilino]-2-cyclopenten-1-one]	–	7.34	75.5	–
120	–	COc1ccc(N(Cc2ccc3ccccc3n2)C2=CC(=O)CC2)cc1OC1Cc2ccccc2C1 [Compound No. 80, 3-[3-(2-indanyloxy)-4-methoxy-N-(2-quinolylmethyl)anilino]-2-cyclopenten-1-one]	–	–	64.4	–
730	–	COc1ccc(N(Cc2ccc3ccccc3c2)C2=CC(=O)CC2)cc1OC1Cc2ccccc2C1 [Compound No. 79, 3-[3-(2-indanyloxy)-4-methoxy-N-(2-naphthylmethyl)anilino]-2-cyclopenten-1-one]	–	–	89.0	–
3800	–	COc1ccc(N(Cc2ccc3ccccc3c2)C2=CC(=O)CCC2)cc1OC1Cc2ccccc2C1 [Compound No. 67, 3-[3-(2-indanyloxy)-4-methoxy-N-(2-naphthylmethyl)anilino]-2-cyclohexen-1-one]	–	–	60.8	–
910	–	COc1ccc(N(Cc2ccccc2)C2=CC(=O)CC2)cc1OC1Cc2ccccc2C1 [Compound No. 77, 3-[N-benzyl-3-(2-indanyloxy)-4-methoxyanilino]-2-cyclopenten-1-one]	–	–	50.9	–
530	–	COc1ccc(N(Cc2ccc3ccccc3n2)C2=CC(=O)CC2)cc1OC1CCCC1 [Compound No. 58, 3-[3-cyclopentyloxy-4-methoxy-N-(2-quinolylemethyl)anilino]-2-cyclopenten-1-one]	–	–	58.7	–
